This is an account of results in patent US20030054524A1, “Method of increasing the fatty acid content in plant seeds” (priority 1999, published 2003).

In experiment [1] the test system is enzymes of the KASI type. The settings on record: in the presence of 5 μM cerulenin; cited from earlier work.
The target of experiment [2] is T1, clKASIV (Cuphea lanceolata, UniProt Q949J2).
T1 sequence (Q949J2 106-538): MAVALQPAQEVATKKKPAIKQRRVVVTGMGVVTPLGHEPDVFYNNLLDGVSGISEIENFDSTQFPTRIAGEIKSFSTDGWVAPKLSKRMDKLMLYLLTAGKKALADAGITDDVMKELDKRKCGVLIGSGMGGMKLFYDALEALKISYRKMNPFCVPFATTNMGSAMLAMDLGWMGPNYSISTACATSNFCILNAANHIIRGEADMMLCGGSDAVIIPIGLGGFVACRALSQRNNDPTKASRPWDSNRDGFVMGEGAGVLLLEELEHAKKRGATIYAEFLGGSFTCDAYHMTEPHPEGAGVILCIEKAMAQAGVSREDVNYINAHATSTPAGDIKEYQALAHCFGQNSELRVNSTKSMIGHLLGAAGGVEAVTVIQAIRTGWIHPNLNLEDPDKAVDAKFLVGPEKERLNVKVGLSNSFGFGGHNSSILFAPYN
The experiment in a line: Enzyme assay: sensitivity of recombinant clKASIV to cerulenin. The experiment is classed as biochemical. The settings on record: condensation assay with [2-14C]-malonyl-ACP. How it is done:
The substrate specificities of the recombinant KASII and KASIV enzymes was investigated by incorporating radioactivity of [2-1^4C]-malonyl-ACP into the condensation products. The batch ([…]) contained 100 mM sodium phosphate, pH 7.6, 10 µM acyl-ACP with a specific chain length, 7.5 μM [2-^14C]-malonyl-ACP (0.74 MBq/mmol), 2 mM NADPH, 2 mM DTT, 0.6 Fkat of affinity-purified recombinant GST-β-ketoacyl-ACP-reductase fusion protein of C. lanceolata (Klein et al. (1992) Mol. Gen. Genet. 233:122-128) and 2 μg of the recombinant KASII/IV preparation. The β-hydroxyacyl-ACPs that were synthesized were precipitated, washed and dissolved as described by Winter et al. (1997) Biochem. J 321:313-318 and then separated by a 2.5 M urea-PAGE. After transfer to an Immobilon P membrane by electroblotting at 0.8 mA/cm for one hour, the reaction products were visualized by autoradiography after five-day exposure on an x-ray film (Hyperfilm MP, Amersham, Braunschweig, Germany).
In the assays, saturated acyl-ACP (C4 through C16) was added to the reaction mixture together with [2- ^4C]-malonyl-ACP and was incubated for ten minutes. Incorporation of the radioactivity from [2- ^4C]-malonyl-ACP into the O-ketoacyl-ACP product, which was reduced to β-hydroxyacyl-ACP for the analysis, was determined. […]

pIC50: −log10 of the molar value.

One may read the pIC50 as the negative decadic logarithm of the IC50, by convention in mol/L.

For the molecule `C/C=C/C/C=C/CCC(=O)[C@H]1O[C@H]1C(N)=O` [cerulenin, Cerulenin], in experiment [1], the “inactivation of enzymes of the KASI type by cerulenin” value was “completely inactivated”. Moreover, the pIC50 in experiment [2] is 4.70.
